Measurements from US20210221866A1, “PROTEASE-RESISTANT LIPIDATED GLP-1 ANALOGS” (MEDIMMUNE LIMITED, priority 2015, published 2021).
Like-named read-outs stand apart in the source and are kept apart here. Numbered stars: 1 amine (or outer) side, 2 acyl side, 3 side chain; on linkers, the order of the positions; unused ones are H or OH. Square brackets hold non-standard residues; d marks the D form. Side chains are listed from the residue outwards. Peptide text beside a SMILES is read from it. * marks the point of attachment. γGlu = O=C(O)[C@H](CCC(=O)[*:2])N[*:1]; αMeF = C[C@](N)(Cc1ccccc1)C(=O)O; αMeK = C[C@](N)(CCCCN)C(=O)O; Lauroyl = CCCCCCCCCCCC(=O)*; αMeS = C[C@](N)(CO)C(=O)O; AEEA = NCCOCCOCC(=O)O; Aib = CC(C)(N)C(=O)O

Key:
[1] = Proteolytic resistance to fasted-state simulated intestinal fluid (FASSIF/Pancreatin); format: in vitro ADME; conditions: 37° C., read-out: Percentage remaining intact peptide (AUC by RP-HPLC) upon incubation with fasted-state simulated intestinal fluid (FASSIF/P); for remaining at 10 min, […]: t = 10 m; for remaining at 0.25 h, […]: t = 15 m; for remaining at 0.5 h, […]: t = 30 m; for remaining at 2 h, […]: t = 2 h
Description: (§1) A fresh suspension of FASSIF/P (Fasted-State Simulated Intestinal Fluid+USP Pancreatin®) was prepared according to that described by Galia, Nicolaides, Hörter, Lobenberg, Reppas and Dressman: Pharm. Res. 15 (1998) 698-705. The resulting preparation is proteolytically equivalent to ˜375 units/mL (375 kU/L) and was used immediately without storage. Peptides for evaluation (1.0 mg, ˜250 nmoles) were initially dissolved in pre-warmed FASSIF without Pancreatin® (200 μL) to which was added pre-warmed fresh FASSIF/Pancreatin® (100 μL) to initiate potential digestion. Following momentary vortexing of the Eppendorf reaction tube the mixture was incubated at 37° C. in a thermostatic waterbath for the duration of the experiment. 25 μL aliquots of the co-incubated peptide-enzyme mixture were periodically withdrawn (t=0, 5 m, 10 m, 15 m, 30 m, 1 h, 2 h) and quenched immediately by addition to a solution of 10% TFA in 1:1 water/acetonitrile (75 μL) to arrest proteolytic activity.

[2] = test system: FASSIF/P (Fasted-State Simulated Intestinal Fluid+USP Pancreatin®); experiment: as above; format: in vitro ADME; conditions: t = 0; 37° C.
Description: as §1

[3] = test system: FASSIF/Pancreatin® activated with 100 μg/mL human enterokinase; experiment: Proteolytic resistance to FASSIF/Pancreatin following full zymogen activation with enterokinase; format: in vitro ADME; conditions: t = 0; 37° C.
Description: as §1, with “Pharm. […] To the” for “Pharm. Res. 15 (1998) 698-705. The”, “preparation was added human enterokinase (100 μg/mL)” for “preparation is proteolytically equivalent”, “to ensure the potential for full zymogen activity of the mixture which” for “to ˜375 units/mL (375 kU/L) and”, “([…])” for “(100 μL)”

[4] = target: T1, human GLP-1 receptor (GLP-1R) (Homo sapiens, UniProt P43220); experiment: cAMP assay, human GLP-1R cells; format: cell-based; conditions: Table 9, bis-lipidated peptides; mean of n1 and n2; read-out: Primary assay EC50 Mean pM GLP-1R
T1 construct: expressed in transfected cells; host or cells: HEK293 cells or CHO cells
Method in brief: (§2)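 Peptide-stimulated cAMP measured by two-step HTRF after a 30 min room-temperature incubation with receptor-expressing cells (hGLP-1R, hGIPR at 1×10^5 cells/ml; hGCGR at 2×10^5 cells/ml). Duplicate dilutions; EC50 from 4-parameter logistic fit of % Delta F.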

[5] = target: T2, human glucagon receptor (GCGR) (Homo sapiens, UniProt P47871); experiment: cAMP assay, human GCGR cells; format: cell-based; conditions: Table 9, bis-lipidated peptides
T2 construct: expressed in transfected cells; host or cells: HEK293 cells or CHO cells
Method in brief: as §2

[6] = target: T3, human glucose-dependent insulinotropic peptide receptor (GIPR) (Homo sapiens, UniProt P48546); experiment: cAMP assay, human GIPR cells; format: cell-based; conditions: Table 9, bis-lipidated peptides
T3 construct: expressed in transfected cells; host or cells: HEK293 cells or CHO cells
T3 sequence (P48546 22-466): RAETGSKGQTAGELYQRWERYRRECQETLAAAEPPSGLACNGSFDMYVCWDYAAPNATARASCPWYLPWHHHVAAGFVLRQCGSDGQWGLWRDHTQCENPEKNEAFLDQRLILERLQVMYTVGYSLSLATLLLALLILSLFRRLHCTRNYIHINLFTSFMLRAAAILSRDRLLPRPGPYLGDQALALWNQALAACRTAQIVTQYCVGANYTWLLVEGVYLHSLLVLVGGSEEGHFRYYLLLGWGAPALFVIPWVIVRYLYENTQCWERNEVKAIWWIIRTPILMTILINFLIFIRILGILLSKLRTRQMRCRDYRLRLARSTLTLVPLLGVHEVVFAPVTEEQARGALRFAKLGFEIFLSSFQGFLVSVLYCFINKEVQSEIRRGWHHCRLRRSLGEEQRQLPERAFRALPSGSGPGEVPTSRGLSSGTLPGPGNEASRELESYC
Method in brief: as §2

[7] = target: T4, GLP-1R (INS1e cells) (Rattus norvegicus, UniProt P32301); experiment: INS1e assay, cAMP activity at GLP-1R; format: cell-based; conditions: Table 10, bis-lipidated peptides, mean of n1 and n2, read-out: INS1e assay EC50 Mean pM GLP-1R
T4 construct: endogenous in cells; host or cells: INS1e cells
T4 sequence (P32301 22-463): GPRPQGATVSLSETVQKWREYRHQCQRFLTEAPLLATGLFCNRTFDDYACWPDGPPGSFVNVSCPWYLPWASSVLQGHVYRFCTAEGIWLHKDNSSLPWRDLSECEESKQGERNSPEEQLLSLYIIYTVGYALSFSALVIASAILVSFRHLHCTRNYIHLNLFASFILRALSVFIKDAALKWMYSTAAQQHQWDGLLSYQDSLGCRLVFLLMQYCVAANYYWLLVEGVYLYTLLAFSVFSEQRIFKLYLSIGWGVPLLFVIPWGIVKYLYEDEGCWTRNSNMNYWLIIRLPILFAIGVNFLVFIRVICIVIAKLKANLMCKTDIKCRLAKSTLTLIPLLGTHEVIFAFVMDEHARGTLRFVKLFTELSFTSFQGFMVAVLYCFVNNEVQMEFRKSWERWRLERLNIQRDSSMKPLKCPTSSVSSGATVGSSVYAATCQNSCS

[8] = target: T5, recombinant Neprilysin (Homo sapiens, UniProt P08473); experiment: Proteolytic resistance to neprilysin (% remaining peptide, RP-HPLC AUC); format: in vitro ADME; conditions: t = 0 (baseline); 37° C., pH 8.3; enzyme:peptide ~1:33 for non-lipidated, ~1:2.5 for lipidated peptides
T5 construct: purchased R&D Systems 1182-ZNC-010
Description: Ratio enzyme (units):peptide (moles) ˜1:33. […] Ratio enzyme (units):peptide (moles) ˜1:2.5.
15 μL aliquots (˜15 ng initial peptide) of the peptide-enzyme mixture were periodically withdrawn (t=0, 30 mins, 1 hr, 2 hr, 4 hr, 8 hr, 24 hr) and quenched immediately by addition to an equal volume (15 μL) of 5% TFA (v/v) in 1:1 water/acetonitrile to arrest proteolytic activity. 20 μL aliquots (˜10 ng initial peptide) were analyzed by LC/MS and/or analytical RP-HPLC as follows: LC/MS method: Agilent Polaris C8-A column (4.6×100 mm, 3 micron) eluted with a linear binary gradient of 10-90% MeCN (0.1% TFA v/v) in water (0.1% TFA v/v) over 30 mins at 1.5 mL min-1 at ambient temperature with detection by both UV absorption at 210 nm and ionization using a Waters 3100 mass detector (ESI+ mode). Peptide fragments deriving from enzymatic hydrolysis were identified by molecular weight, allowing location of the site of cleavage. Analytical RP-HPLC method: Agilent Polaris C8-A column (4.6×100 mm, 3 micron) eluted with a linear binary gradient of 10-90% MeCN (0.1% TFA v/v) in water (0.1% TFA v/v) over either 10 or 15 mins at 1.5 mL min^−1 at 40° C. with detection by UV absorption at 210 nm. Manual integration (AUC) allowed estimation of remaining intact peptide over the time course of the experiment.
25 μL aliquots (˜6 μg initial peptide) were analyzed by LC/MS and/or analytical RP-HPLC as follows: LC/MS method: Agilent Polaris C8-A column (4.6×100 mm, 3 micron) eluted with a linear binary gradient of 10-90% MeCN (0.1% TFA v/v) in water (0.1% TFA v/v) over 30 mins at 1.5 mL min^−1 at ambient temperature with detection by both UV absorption at 210 nm and ionization using a Waters 3100 mass detector (ESI^+ mode). Peptide fragments deriving from enzymatic hydrolysis were identified by molecular weight, allowing location of the site of cleavage. Analytical RP-HPLC method: Agilent Polaris C8-A column (4.6×100 mm, 3 micron) eluted with a linear binary gradient of 10-90% MeCN (0.1% TFA v/v) in water (0.1% TFA v/v) over either 10 or 15 mins at 1.5 mL min^−1 at 40° C. with detection by UV absorption at 210 nm. Manual integration (AUC) allowed estimation of remaining intact peptide over the time course of the experiment.

[9] = target: T6, porcine pancreatic pepsin (Sus scrofa, UniProt P00791); experiment: Proteolytic resistance to pepsin (% remaining intact peptide, RP-HPLC AUC); format: in vitro ADME; conditions: t = 0; 37° C., pH 2.0
T6 construct: purchased Sigma P7012
Description: Pepsin: Lyophilized porcine pancreatic pepsin (Sigma: P7012) was reconstituted to afford a solution of 200 μg/mL (˜500 units/mL) in assay buffer (0.1 M HCl, pH 2.0) to give the enzyme stock solution. […] Ratio enzyme (units):peptide (moles) ˜1:6. […] Ratio enzyme (units):peptide (μmoles) ˜2:1.
Lyophilized porcine pancreatic pepsin (Sigma: P7012) was reconstituted to […] (˜500 units/mL) in assay buffer ([…], pH 2.0) to give the enzyme stock solution.

[10] = target: porcine pancreatic trypsin (Sus scrofa, UniProt P00761); experiment: Proteolytic resistance to trypsin (% remaining intact peptide, RP-HPLC AUC); format: in vitro ADME; conditions: t = 0; 37° C., pH 7.8
Description: Trypsin: Lyophilized porcine pancreatic trypsin (Sigma: T1426) was reconstituted to afford a solution of 100 μg/mL (˜300 units/mL) in assay buffer (50 mM Tris, 10 mM CaCl2), 150 mM NaCl, 1 mM HCl, adjusted to pH 7.8) to give the enzyme stock solution. […] Ratio enzyme (units):peptide (μmoles) ˜1:11. […] Ratio enzyme (units):peptide (μ moles) ˜1.2:1.
Lyophilized porcine pancreatic trypsin (Sigma: T7409) was reconstituted to 200 μg/mL (˜300 units/mL) in assay buffer (50 mM Tris, 10 mM CaCl2), 150 mM NaCl, 1 mM HCl, adjusted to pH 7.8) to give the enzyme stock solution. […] 15 μL aliquots (˜15 μg initial peptide) of the peptide-enzyme mixture were periodically withdrawn (t=0, 30 mins, 1 hr, 2 hr, 4 hr, 8 hr, 24 hr) and quenched immediately by addition to an equal volume (15 μL) of 5% TFA (v/v) in 1:1 water/acetonitrile to arrest proteolytic activity. 20 μL aliquots (˜10 μg initial peptide) were analysed by LC/MS and/or analytical RP-HPLC as follows: LC/MS method: Agilent Polaris C8-A column (4.6×100 mm, 3 micron) eluted with a linear binary gradient of 10-90% MeCN (0.1% TFA v/v) in water (0.1% TFA v/v) over 30 mins at 1.5 mL min^−1 at ambient temperature with detection by both UV absorption at 210 nm and ionization using a Waters 3100 mass detector (ESI^+ mode). Peptide fragments deriving from enzymatic hydrolysis were identified by molecular weight, allowing location of the site of cleavage. Analytical RP-HPLC method: Agilent Polaris C8-A column (4.6×100 mm, 3 micron) eluted with a linear binary gradient of 10-90% MeCN (0.1% TFA v/v) in water (0.1% TFA v/v) over either 10 or 15 mins at 1.5 mL min^−1 at 40° C. with detection by UV absorption at 210 nm. Manual integration (AUC) allowed estimation of remaining intact peptide over the time course of the experiment.
Lyophilized porcine pancreatic trypsin (Sigma: T7409) was reconstituted to 200 μg/mL (˜300 units/mL) in assay buffer (50 mM Tris, 10 mM CaCl2), 150 mM NaCl, 1 mM HCl, adjusted to pH 7.8) to give the enzyme stock solution. […] 25 μL aliquots (˜17 μg initial peptide) of the peptide-enzyme mixture were periodically withdrawn (t=0, 30 mins, 1 hr, 2 hr, 4 hr, 8 hr, 24 hr) and quenched immediately by addition to an equal volume (25 μL) of 5% TFA (v/v) in 1:1 water/acetonitrile to arrest proteolytic activity. 25 μL aliquots (˜8 μg initial peptide) were analysed by LC/MS and/or analytical RP-HPLC as follows: LC/MS method: Agilent Polaris C8-A column (4.6×100 mm, 3 micron) eluted with a linear binary gradient of 10-90% MeCN (0.1% TFA v/v) in water (0.1% TFA v/v) over 30 mins at 1.5 mL min^−1 at ambient temperature with detection by both UV absorption at 210 nm and ionization using a Waters 3100 mass detector (ESI^+ mode). Peptide fragments deriving from enzymatic hydrolysis were identified by molecular weight, allowing location of the site of cleavage. Analytical RP-HPLC method: Agilent Polaris C8-A column (4.6×100 mm, 3 micron) eluted with a linear binary gradient of 10-90% MeCN (0.1% TFA v/v) in water (0.1% TFA v/v) over either 10 or 15 mins at 1.5 mL min^−1 at 40° C. with detection by UV absorption at 210 nm. Manual integration (AUC) allowed estimation of remaining intact peptide over the time course of the experiment.

[11] = Proteolytic resistance to α-chymotrypsin (% remaining intact peptide, RP-HPLC AUC); conditions: recombinant α-chymotrypsin in assay buffer, pH 7.8
Description: (§3) Ratio enzyme (units):peptide (μmoles) ˜1:33. […] Ratio enzyme (units):peptide (μmoles) ˜1:2.5.
(§4) 15 μL aliquots (˜15 μg initial peptide) of the peptide-enzyme mixture are periodically withdrawn (t=0, 30 mins, 1 hr, 2 hr, 4 hr, 8 hr, 24 hr) and quenched immediately by addition to an equal volume (15 μL) of 5% TFA (v/v) in 1:1 water/acetonitrile to arrest proteolytic activity. 20 μL aliquots (˜10 μg initial peptide) are analysed by LC/MS and/or analytical RP-HPLC as follows: LC/MS method: Agilent Polaris C8-A column (4.6×100 mm, 3 micron) elutes with a linear binary gradient of 10-90% MeCN (0.1% TFA v/v) in water (0.1% TFA v/v) over 30 mins at 1.5 mL min^−1 at ambient temperature with detection by both UV absorption at 210 nm and ionization using a Waters 3100 mass detector (ESI^+ mode). Peptide fragments deriving from enzymatic hydrolysis are identified by molecular weight, allowing location of the site of cleavage. Analytical RP-HPLC method: Agilent Polaris C8-A column (4.6×100 mm, 3 micron) elutes with a linear binary gradient of 10-90% MeCN (0.1% TFA v/v) in water (0.1% TFA v/v) over either 10 or 15 mins at 1.5 mL min^−1 at 40° C. with detection by UV absorption at 210 nm. Manual integration (AUC) allows estimation of remaining intact peptide over the time course of the experiment.
(§5) 25 μL aliquots (˜6 μg initial peptide) are analysed by LC/MS and/or analytical RP-HPLC as follows: LC/MS method: Agilent Polaris C8-A column (4.6×100 mm, 3 micron) elutes with a linear binary gradient of 10-90% MeCN (0.1% TFA v/v) in water (0.1% TFA v/v) over 30 mins at 1.5 mL min^−1 at ambient temperature with detection by both UV absorption at 210 nm and ionization using a Waters 3100 mass detector (ESI±mode). Peptide fragments deriving from enzymatic hydrolysis are identified by molecular weight, allowing location of the site of cleavage. Analytical RP-HPLC method: Agilent Polaris C8-A column (4.6×100 mm, 3 micron) elutes with a linear binary gradient of 10-90% MeCN (0.1% TFA v/v) in water (0.1% TFA v/v) over either 10 or 15 mins at 1.5 mL min^−1 at 40° C. with detection by UV absorption at 210 nm. Manual integration (AUC) allows estimation of remaining intact peptide over the time course of the experiment.

[12] = test system: recombinant α-chymotrypsin; experiment: as above; conditions: t = 0; 37° C., pH 7.8
Description: as §3, §4, §5

[13] = first replicate, read-out: Primary assay EC50 Gluc-R (n1)
[14] = second replicate, read-out: Primary assay EC50 Gluc-R (n2)
[15] = first replicate, read-out: Primary assay EC50 GIP-R (n1)
[16] = second replicate, read-out: Primary assay EC50 GIP-R (n2)

T2 sequence (P47871 26-477): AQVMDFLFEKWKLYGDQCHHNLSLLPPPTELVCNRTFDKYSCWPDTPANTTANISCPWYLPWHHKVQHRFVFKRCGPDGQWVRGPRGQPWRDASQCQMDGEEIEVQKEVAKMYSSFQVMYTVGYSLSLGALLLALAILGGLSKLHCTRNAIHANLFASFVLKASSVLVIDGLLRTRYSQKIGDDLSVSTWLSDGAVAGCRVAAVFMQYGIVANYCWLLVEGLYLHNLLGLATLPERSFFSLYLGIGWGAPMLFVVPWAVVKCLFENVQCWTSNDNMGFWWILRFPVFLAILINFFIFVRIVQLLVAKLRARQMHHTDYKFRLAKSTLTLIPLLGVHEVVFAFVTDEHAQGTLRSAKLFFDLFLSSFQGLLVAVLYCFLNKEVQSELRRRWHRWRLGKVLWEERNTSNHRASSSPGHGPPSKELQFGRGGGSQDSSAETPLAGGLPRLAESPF
T5 sequence (P08473 whole entry): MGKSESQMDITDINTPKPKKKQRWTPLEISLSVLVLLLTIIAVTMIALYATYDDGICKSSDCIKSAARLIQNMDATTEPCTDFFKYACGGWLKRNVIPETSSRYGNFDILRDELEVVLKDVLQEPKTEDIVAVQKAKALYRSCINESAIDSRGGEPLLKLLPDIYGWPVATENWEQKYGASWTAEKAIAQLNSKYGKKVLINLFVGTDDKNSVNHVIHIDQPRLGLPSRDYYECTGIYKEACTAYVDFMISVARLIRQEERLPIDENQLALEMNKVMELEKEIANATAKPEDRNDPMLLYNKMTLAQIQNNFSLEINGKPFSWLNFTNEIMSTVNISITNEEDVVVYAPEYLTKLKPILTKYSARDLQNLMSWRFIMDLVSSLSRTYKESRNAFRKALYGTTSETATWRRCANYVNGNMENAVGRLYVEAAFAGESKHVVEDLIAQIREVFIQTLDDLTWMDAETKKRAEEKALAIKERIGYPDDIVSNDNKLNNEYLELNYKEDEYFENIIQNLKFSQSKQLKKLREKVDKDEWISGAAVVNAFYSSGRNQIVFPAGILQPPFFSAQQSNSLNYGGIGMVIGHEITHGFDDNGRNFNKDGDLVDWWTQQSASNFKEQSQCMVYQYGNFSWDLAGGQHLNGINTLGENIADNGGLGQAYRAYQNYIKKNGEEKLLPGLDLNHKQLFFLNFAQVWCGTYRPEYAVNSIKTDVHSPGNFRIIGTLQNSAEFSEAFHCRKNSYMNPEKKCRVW
T6 sequence (P00791 60-385): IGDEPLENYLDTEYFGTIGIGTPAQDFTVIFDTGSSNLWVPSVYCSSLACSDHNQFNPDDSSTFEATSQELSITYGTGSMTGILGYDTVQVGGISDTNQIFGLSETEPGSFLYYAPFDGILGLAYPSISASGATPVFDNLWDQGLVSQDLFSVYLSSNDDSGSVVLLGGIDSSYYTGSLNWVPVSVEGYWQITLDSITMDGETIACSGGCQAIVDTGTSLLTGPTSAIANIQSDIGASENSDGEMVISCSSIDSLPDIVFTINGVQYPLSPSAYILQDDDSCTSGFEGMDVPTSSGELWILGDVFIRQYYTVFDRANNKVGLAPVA
T1 sequence (P43220 24-463): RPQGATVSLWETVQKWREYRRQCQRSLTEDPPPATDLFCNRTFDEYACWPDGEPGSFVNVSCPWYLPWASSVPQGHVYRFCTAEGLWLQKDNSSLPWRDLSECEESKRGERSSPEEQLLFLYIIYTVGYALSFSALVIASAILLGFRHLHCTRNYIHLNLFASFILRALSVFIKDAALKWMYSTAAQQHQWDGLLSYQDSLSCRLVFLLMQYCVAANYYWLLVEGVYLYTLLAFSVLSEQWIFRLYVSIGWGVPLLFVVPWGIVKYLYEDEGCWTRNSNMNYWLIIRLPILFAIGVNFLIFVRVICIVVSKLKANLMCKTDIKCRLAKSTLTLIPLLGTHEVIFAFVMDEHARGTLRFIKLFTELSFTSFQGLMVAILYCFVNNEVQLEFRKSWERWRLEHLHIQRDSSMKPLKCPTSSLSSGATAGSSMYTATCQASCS
Chain of porcine pancreatic trypsin (P00761 9-231): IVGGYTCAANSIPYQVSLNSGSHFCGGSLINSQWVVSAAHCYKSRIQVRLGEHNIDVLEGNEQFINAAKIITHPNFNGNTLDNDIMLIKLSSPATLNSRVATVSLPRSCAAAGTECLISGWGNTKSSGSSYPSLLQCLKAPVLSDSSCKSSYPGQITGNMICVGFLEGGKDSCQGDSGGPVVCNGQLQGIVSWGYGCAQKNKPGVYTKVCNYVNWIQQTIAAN

Row | Compound | remaining at 10 min, […] [1] [%] | remaining at 0.25 h, […] [1] [%] | remaining at 0.5 h, […] [1] [%] | remaining at 2 h, […] [1] [%] | Percentage remaining intact peptide (AUC by RP-HPLC) upon incubation with fasted-state simulated intestinal fluid (FASSIF/P) [2] [%] | Percentage remaining intact peptide (AUC by RP-HPLC) upon incubation with FASSIF activated with 100 μg/mL enterokinase [3] [%] | EC50 [5, 13] [nM] | EC50 [5, 14] [nM] | EC50 [6, 15] [nM] | EC50 [6, 16] [nM] | also measured
1 | CCCCCCCCCCCC(=O)N[C@@H](CCC(=O)NCCOCCOCC(=O)NCCOCCOCC(=O)NCCCC[C@H](NC(=O)[C@H](C)NC(=O)[C@@H](NC(=O)[C@](C)(Cc1ccccc1)NC(=O)[C@H](CCC(=O)O)NC(=O)[C@](C)(CCCCN)NC(=O)[C@H](C)NC(=O)[C@H](C)NC(=O)[C@H](CCC(=O)O)NC(=O)CNC(=O)[C@H](CCC(=O)O)NC(=O)[C@H](CC(C)C)NC(=O)[C@H](CCCCNC(=O)COCCOCCNC(=O)COCCOCCNC(=O)CC[C@H](NC(=O)CCCCCCCCCCC)C(=O)O)NC(=O)[C@H](CO)NC(=O)[C@](C)(CO)NC(=O)[C@@H](NC(=O)[C@H](CC(=O)O)NC(=O)[C@H](CO)NC(=O)[C@@H](NC(=O)[C@](C)(Cc1ccccc1)NC(=O)[C@H](CO)NC(=O)CNC(=O)[C@H](CCC(=O)O)NC(=O)C(C)(C)NC(=O)[C@@H](N)Cc1c[nH]cn1)[C@@H](C)O)C(C)C)[C@@H](C)CC)C(=O)N[C@H](C(=O)N[C@H](C(=O)N[C@@H](CCC(=O)O)C(=O)NCC(=O)NCC(N)=O)C(C)C)C(C)C)C(=O)O [compound 405] (H-H[Aib]EGS[αMeF]TSDV[αMeS]SK([AEEA-AEEA-γGlu-Lauroyl])LEGEAA[αMeK]E[αMeF]IAK([AEEA-AEEA-γGlu-Lauroyl])VVEGG-NH2; N-terminus assumed) | 99 | 99.4 | 95.7 | 60.4 | 100 | 100 | ≥ 21.5 | ≥ 21.5 | ≥ 21.5 | ≥ 21.5 | remaining at 5 min, […] ([1]; t = 5 m): 99.5%; remaining at 1 h, […] ([1]; t = 1 h): 88.7%; EC50 [4]: 3.9 pM; EC50 [7]: 116 pM
2 | CCCCCCCCCCCC(=O)N[C@@H](CCC(=O)NCCOCCOCC(=O)NCCOCCOCC(=O)NCCCC[C@H](NC(=O)[C@H](C)NC(=O)[C@@H](NC(=O)[C@H](Cc1ccccc1)NC(=O)[C@H](CCC(=O)O)NC(=O)[C@](C)(CCCCN)NC(=O)[C@H](C)NC(=O)[C@H](C)NC(=O)[C@H](CCC(=O)O)NC(=O)CNC(=O)[C@H](CCC(=O)O)NC(=O)[C@H](CC(C)C)NC(=O)[C@H](CCCCNC(=O)COCCOCCNC(=O)COCCOCCNC(=O)CC[C@H](NC(=O)CCCCCCCCCCC)C(=O)O)NC(=O)[C@H](CO)NC(=O)[C@](C)(CO)NC(=O)[C@@H](NC(=O)[C@H](CC(=O)O)NC(=O)[C@H](CO)NC(=O)[C@@H](NC(=O)[C@](C)(Cc1ccccc1)NC(=O)[C@H](CO)NC(=O)CNC(=O)[C@H](CCC(=O)O)NC(=O)C(C)(C)NC(=O)[C@@H](N)Cc1c[nH]cn1)[C@@H](C)O)C(C)C)[C@@H](C)CC)C(=O)N[C@H](C(=O)N[C@H](C(=O)N[C@@H](CCC(=O)O)C(=O)NCC(=O)NCC(N)=O)C(C)C)C(C)C)C(=O)O [compound 263] (H-H[Aib]EGS[αMeF]TSDV[αMeS]SK([AEEA-AEEA-γGlu-Lauroyl])LEGEAA[αMeK]EFIAK([AEEA-AEEA-γGlu-Lauroyl])VVEGG-NH2) | 85.6 | 76.8 | 57.6 | 7.8 | 100 | 100 | ≥ 21.5 | ≥ 21.5 | ≥ 21.5 | ≥ 21.5 | Percentage remaining peptide (AUC at specified time-point by RP-HPLC) upon incubation with neprilysin, t = 0 [8]: 100%; Percentage remaining intact peptide (AUC by RP-HPLC) upon incubation with pepsin [9]: 100%; Percentage remaining intact peptide (AUC by RP-HPLC) upon incubation with trypsin [10]: 100.0%; remaining at 0.5 h [11]: 88.1%; remaining at 1 h [11]: 93.9%; remaining at 4 h [11]: 93.5%; remaining at 8 h [11]: 95%; remaining at 24 h [11]: 92.3%; Percentage remaining intact peptide (AUC by RP-HPLC) upon incubation with α-chymotrypsin [12]: 100%
